Patent US8507547B2, “Anti-fatigue agents and oral compositions containing andrographolide as active ingredient” (Suntory Holdings Limited, priority 2007, dated 2013)

System: Balb/c mice
Experiment: Water-immersion and sleep-disturbance test (weight-loaded forced swimming test, swimming time)
Type: in vivo
From the text: The first test is measurement of a swimming time in a water-immersion and sleep-disturbance test. This is described in detail below in Example 1. Mice raised in an environment, such as a water-immersed environment, where they were not allowed to take enough sleep or to take a comfortable posture so that they could take neither physical nor mental rest were weighted and forced to swim, and a length of time that passed until noses of the mice sank under the water for a period of 10 seconds or longer was measured (weight-loaded forced swimming test) to determine their fatigue level.
That is to say, since this animal model is a physical and mental fatigue model as well as an organ fatigue model described below, anti-fatigue action against physical and/or mental fatigue would be confirmed if the swimming time becomes longer as a result of administration of the test substance. Such anti-fatigue action is considered to be involved in reduction in fatigue stress, maintenance of physical energy under fatigue conditions (enhancement of body strength), improvement in endurance, and the like.
Effect of andrographolide on fatigue from water immersion and sleep disturbance was examined using a partially modified method of Tanaka et al. (Neuroscience Let. 352, 159-162, 2003). […] Four out of the five groups were reared as water-immersed groups; the groups were kept in cages in such a manner that each of the cages was filled with tap water at 23° C. with a water depth of 7 mm, instead of a floor covering, so that the mice were immersed in water and deprived of sleep. The mice were immersed in water for two days, andrographolide (Aldrich corp., purity 98%) was forcibly administered orally to the mice with doses of 0.5, 2, 8 mg per kilogram of body weight once daily during the two days (water-immersed and andrographolide-administered group). As a control group, one of the groups was immersed in water for two days, and distilled water was forcibly given orally to the group once daily during the two days (water-immersed control group). The remaining one of the five groups was reared as a normally-reared group; this group was kept in a cage with a normal floor covering, and distilled water was forcibly given orally to the group once daily during the two-day rearing (normally-reared control group). After the two days, each of the mice was provided with a weight corresponding to 8% of its body weight, which weight was attached to its tale, and then the mice were forced to swim in a water tank having a diameter of 18 cm and filled with water having a depth of 30 cm. A length of time that passed until the mice sank under water for a period of 10 seconds or longer (swimming time) was measured (weight-loaded forced swimming test).
The swimming time of the mice of the water-immersed group was shorter than that of the mice of the normally-reared group because of fatigue from the water immersion and sleep disturbance. The effect of andrographolide on the fatigue from the water immersion and sleep disturbance was examined by determining recovery of a reduction in the swimming time of the mice of the water-immersed group after the administration of andrographolide.
In accordance with the procedure described in Example 1, effect on water-immersion and sleep-disturbance fatigue was examined in a case in which andrographolide was administered alone to mice, a case in which alpha-lipoic acid was administered alone to mice, and a case in which a combination of andrographolide and alpha-lipoic acid was administered to mice. Eight-week-old male Balb/c mice were used as a test animal. […] Four out of the five groups served as water-immersed groups, and each of the groups was kept in a cage filled with tap water at 23° C. with a water depth of 7 mm, instead of a floor covering, so that the mice were immersed in water and deprived of sleep. […]

## O=C(O)CCCCC1CCSS1 (stereo not drawn) [alpha-lipoic acid, 1,2-dithiolane-3-pentanoic acid, reference compound]
Example 5, FIG. 5, andrographolide 0.25 mg/kg (5a), alpha-lipoic acid 50 mg/kg (5b) or both (5c), orally once daily during two days of water immersion
  shortening of the swimming time: prevented from shortening
Example 5, swimming time of normally-reared group minus water-immersed control group = 100%, andrographolide 0.25 mg/kg, alpha-lipoic acid 50 mg/kg, alone or combined
  increase rate of the swimming time: 13%
alpha-lipoic acid 50 mg/kg alone or with andrographolide 0.25 mg/kg, during fatigue stress
  anti-fatigue action in the fatigue animal model of mice: anti-fatigue action was produced
